“And” between values parts separate entries of the source, which are not always exact repeats. Equal entries are not always repeated. Where two headings read alike, the source gives them in different places.

In one assay the target is T1, eqBuChE (Equus caballus, UniProt P81908).
T1 construct: eqBuChE, from equine serum; purchased Sigma Aldrich; host or cells: equine serum (natural source)
Put plainly: biochemical. Set-up: species or system equine. To be noted: for IC50: BuChE from equine serum; for SI = IC50 (AChE)/IC50 (BuChE): eeAChE/eqBuChE; for inhibition at 25 µM: read-out: eqBuChE inhibition rate. How it is done: (§1) The inhibitory activities of the synthesised compounds against eeAChE (from electric eel) and eqBuChE (from equine serum) were tested by the modified Ellman’s method[26]^,[27]. […] The determination of AChE and BuChE inhibitory potency of the synthesised compounds were evaluated by Ellman assay, the detailed procedure referred to our previous work[26]^,[27].

The target in the next assay is T2, eeAChE (Electrophorus electricus, UniProt O42275).
T2 construct: eeAChE, from the electric eel; purchased Sigma Aldrich; host or cells: electric eel (natural source)
Put plainly: biochemical. Set-up: species or system electric eel. The procedure:
as §1

The next assay has as its target T3, hBuChE (Homo sapiens, UniProt P06276).
T3 construct: hBuChE, human serum BuChE; purchased Sigma Aldrich; host or cells: human serum (natural source)
As to the kind of experiment: hBuChE reversibility of inhibition (recovery after dilution). The assay is classed as biochemical.

Where [1] appears, read: AChE from electric eel, read-out: IC50 ± SD eeAChE.

T3 sequence (P06276 29-602): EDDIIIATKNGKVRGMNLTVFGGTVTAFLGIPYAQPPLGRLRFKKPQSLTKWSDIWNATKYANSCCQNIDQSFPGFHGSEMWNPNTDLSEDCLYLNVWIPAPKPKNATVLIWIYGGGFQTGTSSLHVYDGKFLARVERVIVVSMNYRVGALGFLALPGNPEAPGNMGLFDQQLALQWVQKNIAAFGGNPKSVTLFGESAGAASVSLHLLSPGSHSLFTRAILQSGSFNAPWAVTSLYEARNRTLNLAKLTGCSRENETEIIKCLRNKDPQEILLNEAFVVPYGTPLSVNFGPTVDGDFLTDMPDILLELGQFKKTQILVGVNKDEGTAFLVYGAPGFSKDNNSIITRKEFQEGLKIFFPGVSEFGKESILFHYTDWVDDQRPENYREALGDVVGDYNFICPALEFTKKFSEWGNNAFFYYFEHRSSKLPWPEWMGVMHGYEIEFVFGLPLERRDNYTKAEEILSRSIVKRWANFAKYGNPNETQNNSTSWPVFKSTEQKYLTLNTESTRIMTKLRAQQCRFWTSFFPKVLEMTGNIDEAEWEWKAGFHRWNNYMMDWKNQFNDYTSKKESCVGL
T2 sequence (O42275 24-633): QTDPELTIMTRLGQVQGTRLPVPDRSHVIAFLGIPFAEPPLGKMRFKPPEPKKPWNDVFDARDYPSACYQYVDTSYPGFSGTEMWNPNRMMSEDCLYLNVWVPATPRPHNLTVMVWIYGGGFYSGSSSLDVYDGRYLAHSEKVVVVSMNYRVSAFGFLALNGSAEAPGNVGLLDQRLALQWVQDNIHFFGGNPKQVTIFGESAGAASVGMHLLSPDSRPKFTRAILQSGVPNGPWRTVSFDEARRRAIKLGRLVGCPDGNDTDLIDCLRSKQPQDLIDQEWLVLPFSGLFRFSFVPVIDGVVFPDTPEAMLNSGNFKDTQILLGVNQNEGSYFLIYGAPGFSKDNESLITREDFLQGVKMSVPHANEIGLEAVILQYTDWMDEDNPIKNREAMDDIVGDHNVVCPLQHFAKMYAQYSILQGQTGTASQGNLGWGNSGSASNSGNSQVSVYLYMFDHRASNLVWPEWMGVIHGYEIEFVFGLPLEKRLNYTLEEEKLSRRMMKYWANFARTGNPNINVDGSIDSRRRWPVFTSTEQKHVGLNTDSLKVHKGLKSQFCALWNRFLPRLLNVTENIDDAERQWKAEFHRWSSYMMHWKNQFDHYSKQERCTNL
T1 sequence (P81908 whole entry): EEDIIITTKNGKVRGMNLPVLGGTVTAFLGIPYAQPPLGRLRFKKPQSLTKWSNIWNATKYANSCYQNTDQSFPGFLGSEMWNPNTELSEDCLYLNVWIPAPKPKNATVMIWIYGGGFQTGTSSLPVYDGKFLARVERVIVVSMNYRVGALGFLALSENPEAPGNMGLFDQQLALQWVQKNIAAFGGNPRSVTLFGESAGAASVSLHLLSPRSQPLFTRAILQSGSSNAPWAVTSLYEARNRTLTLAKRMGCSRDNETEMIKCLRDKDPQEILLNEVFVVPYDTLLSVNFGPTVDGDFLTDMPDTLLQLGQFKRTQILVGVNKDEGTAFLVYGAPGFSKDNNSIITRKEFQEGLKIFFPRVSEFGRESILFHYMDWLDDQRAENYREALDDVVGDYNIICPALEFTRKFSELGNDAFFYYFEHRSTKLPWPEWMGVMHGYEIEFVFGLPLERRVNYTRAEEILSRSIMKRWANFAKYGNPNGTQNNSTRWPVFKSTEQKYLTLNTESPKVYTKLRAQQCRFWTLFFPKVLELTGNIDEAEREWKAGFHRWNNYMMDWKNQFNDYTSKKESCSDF

Regarding `CCN(C)C(=O)Oc1cccc2ncccc12` [Compound 3g, Quinolin-5-yl ethyl(methyl)carbamate], the 50% inhibitory concentration (IC50) (usually the concentration that inhibits the measured activity by half) on eqBuChE (IC50 ± SD eqBuChE) is 2.23 µM and 2.2 µM; on eeAChE, 3.2 ± 0.05 µM. For the same compound, the “SI = IC50 (AChE)/IC50 (BuChE)” value on eqBuChE is given as 1.4.

In the case of `O=C(Oc1cccc2ncccc12)N1CCOCC1` [Compound 3h, Quinolin-5-yl morpholine-4-carboxylate], the IC50 at eqBuChE (read-out: IC50 ± SD eqBuChE) is 1.76 µM and 1.8 µM; at eeAChE (setting [1]) it was 12.9 ± 0.07 µM. Also, on eqBuChE, the “SI = IC50 (AChE)/IC50 (BuChE)” value is reported as 7.2.

As to `CN(C)C(=O)Oc1ccc2ncccc2c1` [Compound 3i, Quinolin-6-yl dimethylcarbamate], at eqBuChE, the inhibition (usually the relative decrease from the control value, in per cent) at 25 µM was 13.8 ± 0.61%. Also, half-maximal inhibition on eeAChE (IC50) required 14.1 ± 0.43 µM.

Take `CCN(CC)C(=O)Oc1ccc2ncccc2c1` [Compound 3j, Quinolin-6-yl diethylcarbamate]: on eqBuChE (at 25 μM of compounds), the inhibition at 25 µM was 30.7 ± 1.26%. For the same compound, the IC50 at eeAChE (setting [1]) was 12.2 ± 0.19 µM.

Take `O=C(Oc1ccc2ncccc2c1)N1CCOCC1` [Compound 3l, Quinolin-6-yl morpholine-4-carboxylate]: the inhibition at 25 µM on eqBuChE (at 25 μM of compounds) stood at 13.8 ± 0.61%. Also, the IC50 on eeAChE (setting [1]) stood at 17.6 ± 0.61 µM.

Turning to `CCN(C)C(=O)Oc1cccc2cccnc12` [Compound 3o, Quinolin-8-yl ethyl(methyl)carbamate], at eqBuChE, the inhibition at 25 µM was found to be 4.1 ± 0.02%. This compound also yielded an IC50 against eeAChE of 8.2 ± 0.06 µM.

On to `O=C(Oc1cccc2cccnc12)N1CCOCC1` [Compound 3p, Quinolin-8-yl morpholine-4-carboxylate], for which, at eqBuChE (at 25 μM of compounds), the inhibition at 25 µM was found to be 10.8 ± 0.07%. Moreover, the IC50 on eeAChE (setting [1]) was 12.6 ± 0.76 µM.

In the case of `CC(C)N(C(=O)Oc1cccc2cccnc12)C(C)C` [Compound 3q, Quinolin-8-yl diisopropylcarbamate], on eqBuChE (at 25 μM of compounds), the inhibition at 25 µM is 1.7 ± 0.01%. Besides, on eeAChE (setting [1]), the concentration for half-maximal inhibition (IC50) was 14.8 ± 0.68 µM.

On to `CCN(C)C(=O)Oc1cccc([C@H](C)N(C)C)c1` [Rivastigmine, reference compound], for which the “hBuChE activity (% control)” value on hBuChE (0.1*IC50, diluted) was determined as 46.9 % control; at hBuChE (1*IC50, diluted) it was 52.3 % control; on hBuChE (1*IC50, undiluted), 51.4 % control. Moreover, the hBuChE activity restored at hBuChE (0.1 × IC50, 120 min) stood at 62.3%; at hBuChE (0.1 × IC50, 240 min), 121.8%.

The record behind these values is PMC9873282, “Design, synthesis and evaluation of quinoline-O-carbamate derivatives as multifunctional agents for the treatment of Alzheimer’s disease” (Journal of Enzyme Inhibition and Medicinal Chemistry, 2023).
